According to PubChem BioAssay AID1963968 (Molecular Pharmacology Branch, DTP, NCI, 2024):

Tested on: 945468-187-T-J3-PDC spheroids with HUVEC/MSC, viability
Test: Anticancer human tumor 945468-187-T-J3-PDC patient-derived rectal carcinoma cell line growth inhibition [PI3K]
Conditions: for IC50: curve of first compound; for viability, T/C: stronger effect = lower value; active = viability on the fitted dose curve at most 10% of control; inactive = the rest
Outline: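 Complex 3D spheroids (cancer cells + endothelial HUVEC + mesenchymal stem cells); drug pairs of targeted agent x inavolisib/alpelisib/duvelisib/copanlisib; half-log series from ~Cmax, max 10 microM if Cmax unknown; endpoint viability.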

[1] = second compound 0.0316 µM, first compound 0.0316 µM
[2] = second compound 0.0316 µM, first compound 0.1 µM
[3] = second compound 0.0316 µM, first compound 0.316 µM
[4] = second compound 0.0316 µM, first compound 1 µM
[5] = second compound 0.1 µM, first compound 0.0316 µM
[6] = second compound 0.1 µM, first compound 0.1 µM
[7] = second compound 0.1 µM, first compound 0.316 µM
[8] = second compound 0.1 µM, first compound 1 µM
[9] = second compound 0.316 µM, first compound 0.0316 µM
[10] = second compound 0.316 µM, first compound 0.1 µM
[11] = second compound 0.316 µM, first compound 0.316 µM
[12] = second compound 0.316 µM, first compound 1 µM
[13] = second compound 1 µM, first compound 0.0316 µM
[14] = second compound 1 µM, first compound 0.1 µM
[15] = second compound 1 µM, first compound 0.316 µM
[16] = second compound 1 µM, first compound 1 µM
[17] = second compound 3.16 µM, first compound 0.0316 µM
[18] = second compound 3.16 µM, first compound 0.1 µM
[19] = second compound 3.16 µM, first compound 0.316 µM
[20] = second compound 3.16 µM, first compound 1 µM
[21] = second compound 10 µM, first compound 0.0316 µM
[22] = second compound 10 µM, first compound 0.1 µM
[23] = second compound 10 µM, first compound 0.316 µM
[24] = second compound 10 µM, first compound 1 µM
[25] = second compound 0.0316 µM, first compound 3.16 µM
[26] = second compound 0.0316 µM, first compound 10 µM
[27] = second compound 0.1 µM, first compound 3.16 µM
[28] = second compound 0.1 µM, first compound 10 µM
[29] = second compound 0.316 µM, first compound 3.16 µM
[30] = second compound 0.316 µM, first compound 10 µM
[31] = second compound 1 µM, first compound 3.16 µM
[32] = second compound 1 µM, first compound 10 µM
[33] = second compound 3.16 µM, first compound 3.16 µM
[34] = second compound 3.16 µM, first compound 10 µM
[35] = second compound 10 µM, first compound 3.16 µM
[36] = second compound 10 µM, first compound 10 µM
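Also: spheroids exposed to agents for 7 days before viability read.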
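For viability, T/C in this document: 100% = DMSO vehicle control viability.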

CCN1CCN(Cc2ccc(Nc3ncc(F)c(-c4cc(F)c5nc(C)n(C(C)C)c5c4)n3)nc2)CC1 + CC(Nc1ncnc2nc[nH]c12)c1cc2cccc(Cl)c2c(=O)n1-c1ccccc1
inactive: viability, T/C (second compound 0.0316 µM, first compound 0.00316 µM) 88.7% | viability, T/C (second compound 0.0316 µM, first compound 0.01 µM) 110% | viability, T/C [1] 107% | viability, T/C [2] 94% | viability, T/C [3] 102% | viability, T/C [4] 79.2% | viability, T/C (second compound 0.1 µM, first compound 0.00316 µM) 91.5% | viability, T/C (second compound 0.1 µM, first compound 0.01 µM) 85.3% | viability, T/C [5] 99% | viability, T/C [6] 99.5% | viability, T/C [7] 102% | viability, T/C [8] 72% | viability, T/C (second compound 0.316 µM, first compound 0.00316 µM) 97.3% | viability, T/C (second compound 0.316 µM, first compound 0.01 µM) 91% | viability, T/C [9] 89.8% | viability, T/C [10] 113% | viability, T/C [11] 106% | viability, T/C [12] 72.8% | viability, T/C (second compound 1 µM, first compound 0.00316 µM) 87.8% | viability, T/C (second compound 1 µM, first compound 0.01 µM) 95.9% | viability, T/C [13] 91.3% | viability, T/C [14] 103% | viability, T/C [15] 93.8% | viability, T/C [16] 69.2% | viability, T/C (second compound 3.16 µM, first compound 0.00316 µM) 93.9% | viability, T/C (second compound 3.16 µM, first compound 0.01 µM) 101% | viability, T/C [17] 103% | viability, T/C [18] 95.1% | viability, T/C [19] 93% | viability, T/C [20] 52.5% | viability, T/C (second compound 10 µM, first compound 0.00316 µM) 91.5% | viability, T/C (second compound 10 µM, first compound 0.01 µM) 89.5% | viability, T/C [21] 91% | viability, T/C [22] 106% | viability, T/C [23] 90% | viability, T/C [24] 37.1%
0.762 µM: IC50 (second compound 10 µM)
> 1 µM: IC50 (second compound 0.0316 µM) | IC50 (second compound 0.1 µM) | IC50 (second compound 0.316 µM) | IC50 (second compound 1 µM) | IC50 (second compound 3.16 µM)

Cn1ncc(Cl)c1-c1cc(C(=O)NC(CN)Cc2cccc(F)c2)sc1Cl (stereo unspecified) + CC(Nc1ncnc2nc[nH]c12)c1cc2cccc(Cl)c2c(=O)n1-c1ccccc1
1.14 µM: IC50 (second compound 10 µM)
1.97 µM: IC50 (second compound 0.316 µM)
2.39 µM: IC50 (second compound 0.1 µM)
inactive: viability, T/C [1] 101% | viability, T/C [2] 96% | viability, T/C [3] 99.9% | viability, T/C [4] 59.3% | viability, T/C [25] 44.9% | viability, T/C [26] 33.5% | viability, T/C [5] 94.9% | viability, T/C [6] 104% | viability, T/C [7] 88.2% | viability, T/C [8] 60.5% | viability, T/C [27] 51.5% | viability, T/C [28] 38.2% | viability, T/C [9] 106% | viability, T/C [10] 97.3% | viability, T/C [11] 87.3% | viability, T/C [12] 62.1% | viability, T/C [29] 41.2% | viability, T/C [30] 28.6% | viability, T/C [13] 112% | viability, T/C [14] 89.5% | viability, T/C [15] 86.2% | viability, T/C [16] 48.6% | viability, T/C [31] 39% | viability, T/C [32] 28.5% | viability, T/C [17] 107% | viability, T/C [18] 97.7% | viability, T/C [19] 86.5% | viability, T/C [20] 57.6% | viability, T/C [33] 40.7% | viability, T/C [34] 24.6% | viability, T/C [21] 107% | viability, T/C [22] 75.9% | viability, T/C [23] 84.2% | viability, T/C [24] 44.5% | viability, T/C [35] 35% | viability, T/C [36] 20.1%
1.72 µM: IC50 (second compound 0.0316 µM)
1.34 µM: IC50 (second compound 1 µM)
1.73 µM: IC50 (second compound 3.16 µM)

Cn1nccc1Nc1nccc(-c2ccn(C(CO)c3ccc(Cl)c(F)c3)c(=O)c2)n1 (stereo unspecified) + CC(Nc1ncnc2nc[nH]c12)c1cc2cccc(Cl)c2c(=O)n1-c1ccccc1
> 10 µM: IC50 (second compound 0.0316 µM) | IC50 (second compound 0.1 µM) | IC50 (second compound 0.316 µM) | IC50 (second compound 1 µM) | IC50 (second compound 3.16 µM) | IC50 (second compound 10 µM)
inactive: viability, T/C [1] 126% | viability, T/C [2] 108% | viability, T/C [3] 117% | viability, T/C [4] 107% | viability, T/C [25] 113% | viability, T/C [26] 132% | viability, T/C [5] 94.3% | viability, T/C [6] 101% | viability, T/C [7] 113% | viability, T/C [8] 116% | viability, T/C [27] 117% | viability, T/C [28] 116% | viability, T/C [9] 93.3% | viability, T/C [10] 107% | viability, T/C [11] 111% | viability, T/C [12] 114% | viability, T/C [29] 116% | viability, T/C [30] 139% | viability, T/C [13] 113% | viability, T/C [14] 127% | viability, T/C [15] 102% | viability, T/C [16] 121% | viability, T/C [31] 118% | viability, T/C [32] 136% | viability, T/C [17] 108% | viability, T/C [18] 109% | viability, T/C [19] 106% | viability, T/C [20] 120% | viability, T/C [33] 116% | viability, T/C [34] 122% | viability, T/C [21] 104% | viability, T/C [22] 108% | viability, T/C [23] 111% | viability, T/C [24] 123% | viability, T/C [35] 108% | viability, T/C [36] 123%
